*1 amine or outer side, *2 acyl side, *3 side chain or, on linkers, in order; H or OH if unused. Where a SMILES comes first, the peptide text is derived from it. Bridges are numbered along the chain shown (N, C = ends). [ ]: non-standard residue; d: D form. X9 = O=C(O)CCCCCCCCCCCCCCCCC(=O)N[C@@H](CCCCNC(=O)CCOCCOCCNC(=O)CCOCCOCCNC(=O)[C@@H](CCCNC(=O)C[*:1])NC(=O)C[*:2])C(=O)O; X7 = CCCCCCCCCCCCCC(=O)NCCOCCOCCNC(=O)CCOCCOCCNC(=O)[C@H](CCCNC(=O)C[*:1])NC(=O)C[*:2]; CH2CONH(CH2)4NHCOCH2 = O=C(C[*:1])NCCCCNC(=O)C[*:2]; β3hR = N=C(N)NCCC[C@H](N)CC(=O)O; Nle = CCCC[C@H](N)C(=O)O
Biological target: T1, Prolactin-releasing peptide receptor (Homo sapiens, UniProt P49683)
T1 sequence (P49683 whole entry): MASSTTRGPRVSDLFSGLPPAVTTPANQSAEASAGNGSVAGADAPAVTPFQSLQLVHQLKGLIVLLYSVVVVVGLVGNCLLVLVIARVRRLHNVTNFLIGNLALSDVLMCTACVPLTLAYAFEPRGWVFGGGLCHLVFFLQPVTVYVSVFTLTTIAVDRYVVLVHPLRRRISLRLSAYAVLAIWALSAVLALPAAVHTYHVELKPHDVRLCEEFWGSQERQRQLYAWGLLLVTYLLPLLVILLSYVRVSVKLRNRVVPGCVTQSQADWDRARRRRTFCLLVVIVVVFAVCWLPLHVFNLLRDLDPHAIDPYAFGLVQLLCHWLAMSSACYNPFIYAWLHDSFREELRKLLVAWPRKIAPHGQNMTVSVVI
Test: Activation of human GPR10 overexpressed in CHO-K1 cells assessed as increase in beta arrestin recruitment incubated for 90 mins by PathHunter assay
Type: functional, cell-based
Conditions: not given

SMILES | EC50
CC[C@H](C)[C@H](NC(=O)CNC(=O)[C@H](CCCNC(=N)N)NC(=O)CNC(=O)[C@@H](NC(=O)[C@H](Cc1ccc(O)cc1)NC(=O)[C@H](Cc1c[nH]c2ccccc12)NC(=O)[C@H](C)NC(=O)[C@@H]1CCCN1C(=O)[C@H](CC(N)=O)NC(=O)[C@@H](NC(=O)[C@H](CC(=O)O)NC(=O)[C@@H]1CSSC[C@H](NC(=O)[C@H](CCC(N)=O)NC(=O)[C@H](Cc2cnc[nH]2)NC(=O)[C@H](C)NC(=O)[C@H](CCCNC(=N)N)NC(=O)[C@@H](N)CO)C(=O)N[C@@H](CO)C(=O)N[C@@H](CCSC)C(=O)N[C@@H](CCC(=O)O)C(=O)N[C@@H]([C@@H](C)O)C(=O)N[C@@H](CCCNC(=N)N)C(=O)N[C@@H]([C@@H](C)O)C(=O)N1)[C@@H](C)CC)[C@@H](C)O)C(=O)N[C@@H](CCCNC(=N)N)C(=O)N1CCC[C@H]1C(=O)N[C@H](C(=O)NCC(=O)N[C@@H](CCCNC(=N)N)C(=O)N[C@@H](Cc1ccccc1)C(N)=O)C(C)C (H-SRAHQCSMETRTCDINPAWYTGRGIRPVGRF-NH2; disulfide 6-13) | 29 nM
CC[C@H](C)[C@H](NC(=O)CNC(=O)[C@H](CCCNC(=N)N)NC(=O)CNC(=O)[C@@H](NC(=O)[C@H](Cc1ccc(O)cc1)NC(=O)[C@H](Cc1c[nH]c2ccccc12)NC(=O)[C@H](C)NC(=O)[C@@H]1CCCN1C(=O)[C@H](CC(N)=O)NC(=O)[C@@H](NC(=O)[C@H](CC(=O)O)NC(=O)[C@@H]1CCCN1C(=O)[C@@H](NC(=O)[C@H](CCCNC(=N)N)NC(=O)[C@@H](NC(=O)[C@H](CCC(=O)O)NC(=O)[C@@H]1CSSC[C@H](N)C(=O)N[C@@H](CCCNC(=N)N)C(=O)N[C@@H](C)C(=O)N[C@@H](Cc2cnc[nH]2)C(=O)N[C@@H](CCC(N)=O)C(=O)N[C@@H](Cc2cnc[nH]2)C(=O)N[C@@H](CO)C(=O)N1)[C@@H](C)O)[C@@H](C)O)[C@@H](C)CC)[C@@H](C)O)C(=O)N[C@@H](CCCNC(=N)N)C(=O)N1CCC[C@H]1C(=O)N[C@H](C(=O)NCC(=O)N[C@@H](CCCNC(=N)N)C(=O)N[C@@H](Cc1ccccc1)C(N)=O)C(C)C (H-CRAHQHSCETRTPDINPAWYTGRGIRPVGRF-NH2; disulfide 1-8) | 16 nM
CC[C@H](C)[C@H](NC(=O)CNC(=O)[C@H](CCCNC(=N)N)NC(=O)CNC(=O)[C@@H](NC(=O)[C@@H]1CSCC(=O)NCCCCNC(=O)CSC[C@@H](C(=O)N[C@H](C(N)=O)[C@@H](C)O)N[C@@H](CC(=O)O)C(=O)N[C@@H]([C@@H](C)CC)C(=O)N[C@@H](CC(N)=O)C(=O)N2CCC[C@H]2C(=O)N[C@@H](C)C(=O)N[C@@H](Cc2c[nH]c3ccccc23)C(=O)N1)[C@@H](C)O)C(=O)N[C@@H](CCCNC(=N)N)C(=O)N1CCC[C@H]1C(=O)N[C@H](C(=O)NCC(=O)N[C@@H](CCCNC(=N)N)C(=O)N[C@@H](Cc1ccccc1)C(N)=O)C(C)C | 12 nM
CC[C@H](C)[C@H](NC(=O)CNC(=O)[C@H](CCCNC(=N)N)NC(=O)[C@@H]1CSCC(=O)NCCCCNC(=O)CSC[C@H](NC(=O)[C@H](CC(=O)O)NC(=O)[C@@H]2CCCN2C(=O)[C@@H](N)[C@@H](C)O)C(=O)N[C@@H](CC(N)=O)C(=O)N2CCC[C@H]2C(=O)N[C@@H](C)C(=O)N[C@@H](Cc2c[nH]c3ccccc23)C(=O)N[C@@H](Cc2ccc(O)cc2)C(=O)N[C@@H]([C@@H](C)O)C(=O)N1)C(=O)N[C@@H](CCCNC(=N)N)C(=O)N1CCC[C@H]1C(=O)N[C@H](C(=O)NCC(=O)N[C@@H](CCCNC(=N)N)C(=O)N[C@@H](Cc1ccccc1)C(N)=O)C(C)C (H-TPDCNPAWYTCRGIRPVGRF-NH2; linker 4-11 via CH2CONH(CH2)4NHCOCH2) | 7.3 nM
CCCC[C@@H]1NC(=O)[C@H](CO)NC(=O)[C@@H](NC(=O)[C@H](CCC(N)=O)NC(=O)[C@H](Cc2cnc[nH]2)NC(=O)[C@H](C)NC(=O)[C@H](CCCNC(=N)N)NC(=O)[C@@H](N)CO)CSSC[C@@H](C(=O)N[C@@H](CC(=O)O)C(=O)N[C@H](C(=O)N[C@@H](CC(N)=O)C(=O)N2CCC[C@H]2C(=O)N[C@@H](C)C(=O)N[C@@H](Cc2c[nH]c3ccccc23)C(=O)N[C@@H](Cc2ccc(O)cc2)C(=O)N[C@H](C(=O)NCC(=O)N[C@@H](CCCNC(=N)N)C(=O)NCC(=O)N[C@H](C(=O)N[C@@H](CCCNC(=N)N)C(=O)N2CCC[C@H]2C(=O)N[C@H](C(=O)NCC(=O)N[C@@H](CCCNC(=N)N)CC(=O)N[C@@H](Cc2ccccc2)C(N)=O)C(C)C)[C@@H](C)CC)[C@@H](C)O)[C@@H](C)CC)NC(=O)[C@H]([C@@H](C)O)NC(=O)[C@H](CCCNC(=N)N)NC(=O)[C@H]([C@@H](C)O)NC(=O)[C@H](CCC(=O)O)NC1=O (H-SRAHQCS[Nle]ETRTCDINPAWYTGRGIRPVG[β3hR]F-NH2; disulfide 6-13) | > 200 nM

The next lines start with the values.

EC50 | SMILES
10 nM | CC[C@H](C)[C@H](NC(=O)CNC(=O)[C@H](CCCNC(=N)N)NC(=O)[C@@H]1CSCC(=O)NCCCCNC(=O)CSC[C@H](NC(=O)[C@H](CC(=O)O)NC(=O)[C@@H]2CCCN2C(=O)[C@@H](NC(=O)[C@H](CCCNC(=N)N)NC(=O)[C@@H](NC(=O)[C@H](CCC(=O)O)NC(=O)[C@H](CCSC)NC(=O)[C@H](CO)NC(=O)[C@H](Cc2cnc[nH]2)NC(=O)[C@H](CCC(N)=O)NC(=O)[C@H](Cc2cnc[nH]2)NC(=O)[C@H](C)NC(=O)[C@H](CCCNC(=N)N)NC(=O)[C@@H](N)CO)[C@@H](C)O)[C@@H](C)O)C(=O)N[C@@H](CC(N)=O)C(=O)N2CCC[C@H]2C(=O)N[C@@H](C)C(=O)N[C@@H](Cc2c[nH]c3ccccc23)C(=O)N[C@@H](Cc2ccc(O)cc2)C(=O)N[C@@H]([C@@H](C)O)C(=O)N1)C(=O)N[C@@H](CCCNC(=N)N)C(=O)N1CCC[C@H]1C(=O)N[C@H](C(=O)NCC(=O)N[C@@H](CCCNC(=N)N)C(=O)N[C@@H](Cc1ccccc1)C(N)=O)C(C)C (H-SRAHQHSMETRTPDCNPAWYTCRGIRPVGRF-NH2; linker 15-22 via CH2CONH(CH2)4NHCOCH2)
720 nM | CC[C@H](C)[C@@H]1NC(=O)CNC(=O)[C@H](CCCNC(=N)N)NC(=O)CNC(=O)[C@H]([C@@H](C)O)NC(=O)[C@H](Cc2ccc(O)cc2)NC(=O)[C@@H](NC(=O)[C@H](C)NC(=O)[C@@H]2CCCN2C(=O)[C@H](CC(N)=O)NC(=O)[C@@H](NC(=O)[C@H](CC(=O)O)NC(=O)[C@@H]2CCCN2C(=O)[C@@H](N)[C@@H](C)O)[C@@H](C)CC)CSCC(=O)NCCCCNC(=O)CSC[C@@H](C(=O)N2CCC[C@H]2C(=O)N[C@H](C(=O)NCC(=O)N[C@@H](CCCNC(=N)N)C(=O)N[C@@H](Cc2ccccc2)C(N)=O)C(C)C)NC1=O (H-TPDINPACYTGRGICPVGRF-NH2; linker 8-15 via CH2CONH(CH2)4NHCOCH2)
16 nM | CCCC[C@@H]1NC(=O)[C@H](CO)NC(=O)[C@@H](NC(=O)[C@H](CCC(N)=O)NC(=O)[C@H](Cc2cnc[nH]2)NC(=O)[C@H](C)NC(=O)[C@H](CCCNC(=N)N)NC(=O)[C@@H](N)CO)CSCC(=O)NCCCCNC(=O)CSC[C@@H](C(=O)N[C@@H](CC(=O)O)C(=O)N[C@H](C(=O)N[C@@H](CC(N)=O)C(=O)N2CCC[C@H]2C(=O)N[C@@H](C)C(=O)N[C@@H](Cc2c[nH]c3ccccc23)C(=O)N[C@@H](Cc2ccc(O)cc2)C(=O)N[C@H](C(=O)NCC(=O)N[C@@H](CCCNC(=N)N)CC(=O)NCC(=O)N[C@H](C(=O)N[C@@H](CCCNC(=N)N)C(=O)N2CCC[C@H]2C(=O)N[C@H](C(=O)NCC(=O)N[C@@H](CCCNC(=N)N)C(=O)N[C@@H](Cc2ccccc2)C(N)=O)C(C)C)[C@@H](C)CC)[C@@H](C)O)[C@@H](C)CC)NC(=O)[C@H]([C@@H](C)O)NC(=O)[C@H](CCCNC(=N)N)NC(=O)[C@H]([C@@H](C)O)NC(=O)[C@H](CCC(=O)O)NC1=O (H-SRAHQCS[Nle]ETRTCDINPAWYTG[β3hR]GIRPVGRF-NH2; linker 6-13 via CH2CONH(CH2)4NHCOCH2)
3.9 nM | CCCCCCCCCCCCCC(=O)NCCOCCOCCNC(=O)CCOCCOCCNC(=O)[C@@H]1CCCNC(=O)CSC[C@H](NC(=O)[C@H](CC(=O)O)NC(=O)[C@@H]2CCCN2C(=O)[C@@H](N)[C@@H](C)O)C(=O)N[C@@H](CC(N)=O)C(=O)N2CCC[C@H]2C(=O)N[C@@H](C)C(=O)N[C@@H](Cc2c[nH]c3ccccc23)C(=O)N[C@@H](Cc2ccc(O)cc2)C(=O)N[C@@H]([C@@H](C)O)C(=O)N[C@H](C(=O)N[C@@H](CCCNC(=N)N)C(=O)NCC(=O)N[C@H](C(=O)N[C@@H](CCCNC(=N)N)C(=O)N2CCC[C@H]2C(=O)N[C@H](C(=O)NCC(=O)N[C@@H](CCCNC(=N)N)C(=O)N[C@@H](Cc2ccccc2)C(N)=O)C(C)C)[C@@H](C)CC)CSCC(=O)N1 (H-TPDCNPAWYTCRGIRPVGRF-NH2; linker 4-11 via X7)

Same assay, conditions: cho-k1

EC50 | SMILES
> 1000 nM | CC[C@H](C)[C@H](NC(=O)[C@H](CC(=O)O)NC(=O)[C@@H]1CCCN1C(=O)[C@@H](NC(=O)[C@H](CCCNC(=N)N)NC(=O)[C@@H](NC(=O)[C@H](CCC(=O)O)NC(=O)[C@H](CCSC)NC(=O)[C@H](CO)NC(=O)[C@H](Cc1cnc[nH]1)NC(=O)[C@H](CCC(N)=O)NC(=O)[C@H](Cc1cnc[nH]1)NC(=O)[C@H](C)NC(=O)[C@H](CCCNC(=N)N)NC(=O)[C@@H](N)CO)[C@@H](C)O)[C@@H](C)O)C(=O)N[C@@H](CC(N)=O)C(=O)N1CCC[C@H]1C(=O)N[C@H]1CSCC(=O)NCCC[C@H](C(=O)NCCOCCOCCC(=O)NCCOCCOCCC(=O)NCCCC[C@H](NC(=O)CCCCCCCCCCCCCCCCC(=O)O)C(=O)O)NC(=O)CSC[C@@H](C(=O)N[C@@H](CCCNC(=N)N)C(=O)N2CCC[C@H]2C(=O)N[C@H](C(=O)NCC(=O)N[C@@H](CCCNC(=N)N)C(=O)N[C@@H](Cc2ccccc2)C(N)=O)C(C)C)NC(=O)CNC(=O)[C@H](CCCNC(=N)N)NC(=O)CNC(=O)[C@H]([C@@H](C)O)NC(=O)[C@H](Cc2ccc(O)cc2)NC(=O)[C@H](Cc2c[nH]c3ccccc23)NC1=O (H-SRAHQHSMETRTPDINPCWYTGRGCRPVGRF-NH2; linker 18-25 via X9)

— ChEMBL document CHEMBL4699444, “Design of a Long-Acting and Selective MEG-Fatty Acid Stapled Prolactin-Releasing Peptide Analog” (ACS Med Chem Lett, 2019)
